Columns and labels:
human subjects = experiment: Drug-assisted psychotherapy in individuals for whom MDMA therapy is ineffective; format: in vivo
Description: Inter alia, 5-MAPB or 6-APB-assisted psychotherapy is effective in post-traumatic stress disorder (PTSD) therapy, couple's therapy, and therapy for anxiety disorders.

[1] = animal models, after oral ingestion; cited from earlier work

## CNC(C)Cc1ccc2occc2c1 (stereo not shown) [5-MAPB, 1-(Benzofuran-5-yl)-N-methylpropan-2-amine]
Human subjects
  therapeutic efficacy in the psychotherapeutic context: significant enhancement of therapeutic efficacy
[1]
  apparent plasma half-life: approximately 1 hour

## CC(N)Cc1ccc2ccoc2c1 (stereo not shown) [6-APB, 1-Benzofuran-6-yl propan-2-amine]
Human subjects
  therapeutic efficacy in the psychotherapeutic context: significant enhancement of therapeutic efficacy
[1]
  apparent plasma half-life: approximately 1 hour

Reference: US20240423950A1, “5-MAPB OR 6-APB FOR USE IN DRUG-ASSISTED PSYCHOTHERAPY” (CLEARMIND MEDICINE INC., priority 2021, published 2024)
